From patent US20250206738A1, “WRN INHIBITORS” (Nimbus Wadjet, Inc., priority 2023, published 2025)

Assays:
[1] = target: T1, human Werner helicase (WRN, Uniprot Q14191, amino acids 517-1235 with L1074F point mutation; WRN-BV08) (Homo sapiens, UniProt Q14191, L1074F); assay: WRN (BV08) ADP-Glo assay; format: biochemical; conditions: WRN-BV08 (aa 517-1235, L1074F); read-out: ADP-Glo_hWRN_IC50
T1 construct: Uniprot Q14191, amino acids 517-1235 with L1074F point mutation; 8xHis (C, cleaved yes); TEV cleavage site (ENLYFQG) (C, cleaved yes); made in house; host or cells: Sf9 insect cells (baculovirus, pFastBac)
Method in brief: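 WRN 517-1235 (L1074F, untagged, Sf9-expressed), 0.15 nM, preincubated with compound 15 min at 25 °C, then 60 min with […] and 0.1 nM DNA duplex in Bicine pH 7.5, 1 mM MgCl2, 1% DMSO. ADP-Glo luminescence; % inhibition vs NSC-617145 control, four-parameter IC50 fit.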

[2] = test system: p21 induction in HCT 116 cells; assay: p21 induction in cells (In-Cell Western, p21/GAPDH ratio); format: cell-based; conditions: Homo sapiens, HCT-116, 24 h, 24 h compound incubation, read-out: P21_EC50
Method: Example 3: Method for Determining Effect on p21 Induction in Cells
The colon carcinoma cell line HCT 116 was obtained from ATCC and cultured in growth medium consisting of Mccoy's 5A Medium (Gibco 16600108) supplemented with 10% FBS (Transgene FS201-02) and 100 units/mL penicillin-streptomycin (Gibco 15140122) and maintained at 37° C. under 5% CO2. On the day of seeding, 2,000 cells in 30 μL of culture media were plated per well to Poly-D-Lysine 384 Well Black Clear Plates (Biocoat 356663) and incubated overnight at 37° C. under 5% CO2. The following day, compounds were serially diluted in DMSO for a total of 11 test concentrations. The typical starting concentration of compounds was 10 μM with 2-fold dilutions. Next, 150 nL of diluted compound was added in duplicate to the assay plate, using an Echo 655 (Labcyte). The plate was centrifuged at 500 RPM for 1 min and then incubated at 37° C. under 5% CO2 for 24 h. After 24h, medium was removed, and cells were fixed by adding 40 μL of 4% paraformaldehyde solution to each well and incubated for 20 min at room temperature. The plate was then washed 4 times with 100 μL per well of wash buffer (PBS with 0.1% Tween-20) using a microplate washer. Next, 30 μL of ice-cold methanol was added to each well and the plate was incubated at −20° C. for 10 min. The plate was washed 4 times with 100 μL per well of wash buffer by a microplate washer, then 30 μL per well of blocking buffer (Intercept PBS blocking buffer (LI-COR 927-70001) with 0.05% Tween-20) was added and the plate was incubated at room temperature with shaking for 2h. Next, to each test well, 20 μL of primary antibody solution (p21 Waf1/CIP (12D1) RabbitmAb (Cell Signaling Technologies 2947) diluted 1:1000 and GAPDH (D4C6R) Mouse mAb (Cell Signaling Technologies 97166) diluted 1:2000 in blocking buffer) was added and the plate was placed at 4° C., overnight. The following day, the plate was washed 5 times with 100 μL per well of wash buffer using a microplate washer for 5 min. 20 μL per well of secondary antibody (IRDye 680CW Goat anti-Mouse IgG (H+L) (LI-COR 926-68070) diluted 1: 2000 in Blocking Buffer and IRDye 800CW Goat anti-Rabbit IgG (H+L) (LI-COR 926-32211) diluted 1: 2000 in Blocking Buffer) was then added and the plate was stored for 2h in the dark at room temperature with shaking. The plate was then washed 4 times with 100 μL per well of wash buffer again using a microplate washer. Finally, the p21 signal and the GAPDH signal were quantified using a LI-COR Odyssey CLx Imager machine reading at 800 nm and 700 nm, respectively. Each plate contained DMSO control (low control) and an internal reference WRN inhibitor (high control) respectively. For quantitation, the 800 nm/700 nm ratio was calculated for each well to give fold p21 induction and then percent activation for each compound well was calculated as follows (100×(ratio cpd well−ratio low control)/(ratio high control−ratio low control)). EC50 values for each compound were generated after non-linear regression curve fitting using commercially available software.

T1 sequence (Q14191 with tags, fused parts or gaps L1074F): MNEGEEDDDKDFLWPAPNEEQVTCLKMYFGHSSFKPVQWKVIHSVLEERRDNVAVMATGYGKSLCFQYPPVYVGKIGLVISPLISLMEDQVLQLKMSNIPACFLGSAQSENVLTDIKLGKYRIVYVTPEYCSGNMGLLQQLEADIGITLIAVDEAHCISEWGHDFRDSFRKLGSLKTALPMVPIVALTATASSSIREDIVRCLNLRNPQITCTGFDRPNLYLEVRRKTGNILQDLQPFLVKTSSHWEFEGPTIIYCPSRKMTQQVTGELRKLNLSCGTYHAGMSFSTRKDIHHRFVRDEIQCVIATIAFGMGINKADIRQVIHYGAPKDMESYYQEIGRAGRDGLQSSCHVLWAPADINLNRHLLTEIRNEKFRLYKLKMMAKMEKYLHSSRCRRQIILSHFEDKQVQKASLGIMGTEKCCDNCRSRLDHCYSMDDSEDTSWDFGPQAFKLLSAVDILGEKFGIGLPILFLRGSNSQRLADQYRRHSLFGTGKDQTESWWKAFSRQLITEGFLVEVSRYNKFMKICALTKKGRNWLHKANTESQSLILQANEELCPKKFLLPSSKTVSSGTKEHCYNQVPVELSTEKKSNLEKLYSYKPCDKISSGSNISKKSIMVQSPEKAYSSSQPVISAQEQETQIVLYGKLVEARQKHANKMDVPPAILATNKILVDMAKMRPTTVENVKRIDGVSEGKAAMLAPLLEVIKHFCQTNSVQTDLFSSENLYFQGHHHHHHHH

| Structure (SMILES) | IC50 [1] [nM] | EC50 [2] [nM] |
| --- | --- | --- |
| CCc1c(N2CCN(C(=O)c3c(O)ccc4ncoc34)CC2)c(=O)n2nc(N(C)C)nc2n1CC(=O)NC12CC(C(F)(F)F)(C1)C2 [I-22, 2-(2-(dimethylamino)-5-ethyl-6-(4-(6-hydroxybenzo[d]oxazole-7-carbonyl)piperazin-1-yl)-7-oxo-[1,2,4]triazolo[1,5-a]pyrimidin-4(7H)-yl)-N-(3-(trifluoromethyl)bicyclo[1.1.1]pentan-1-yl)acetamide] | 5 to 50 | 2000 to 5000 |
| CCc1c(N2CCN(C(=O)c3ncnc(C)c3O)CC2)c(=O)c2sc(-c3ccnc(OC)c3)nc2n1CC(=O)NC12CC(C(F)(F)F)(C1)C2 [I-25, 2-(5-ethyl-6-(4-(5-hydroxy-6-methylpyrimidine-4-carbonyl)piperazin-1-yl)-2-(2-methoxypyridin-4-yl)-7-oxothiazolo[4,5-b]pyridin-4(7H)-yl)-N-(3-(trifluoromethyl)bicyclo[1.1.1]pentan-1-yl)acetamide] | 5 to 50 | > 5000 |
| CCc1c(N2CCN(C(=O)c3c(O)ccc4ncoc34)CC2)c(=O)n2nc(-c3ccnc(OC)c3)nc2n1CC(=O)NC12CCC(C(F)(F)F)(CC1)CC2 [I-45, 2-(5-ethyl-6-(4-(6-hydroxybenzo[d]oxazole-7-carbonyl)piperazin-1-yl)-2-(2-methoxypyridin-4-yl)-7-oxo-[1,2,4]triazolo[1,5-a]pyrimidin-4(7H)-yl)-N-(4-(trifluoromethyl)bicyclo[2.2.2]octan-1-yl)acetamide] | 5 to 50 | 2000 to 5000 |
| CCc1c(N2CCN(C(=O)c3c(O)ccc4ncoc34)CC2)c(=O)n2nc(C3=CCOCC3)nc2n1CC(=O)NC12CC(C(C)C)(C1)C2 [I-42, 2-(2-(3,6-dihydro-2H-pyran-4-yl)-5-ethyl-6-(4-(6-hydroxybenzo[d]oxazole-7-carbonyl)piperazin-1-yl)-7-oxo-[1,2,4]triazolo[1,5-a]pyrimidin-4(7H)-yl)-N-(3-isopropylbicyclo[1.1.1]pentan-1-yl)acetamide] | 5 to 50 | ≤ 500 |
| CCc1c(N2CCN(C(=O)c3ncnc(C)c3O)[C@H]3CCC[C@H]32)c(=O)c2nn(-c3ccnc(OC)c3)nc2n1CC(=O)NC12CC(C(C)C)(C1)C2 (relative stereo) [I-93, rel-2-{6-[(4aR,7aS)-4-(5-hydroxy-6-methylpyrimidine-4-carbonyl)-octahydro-1H-cyclopenta[b]pyrazin-1-yl]-5-ethyl-2-(2-methoxypyridin-4-yl)-7-oxo-2H,4H,7H-[1,2,3]triazolo[4,5-b]pyridin-4-yl}-N-[3-(propan-2-yl)bicyclo[1.1.1]pentan-1-yl]acetamide] | 5 to 50 | 500 to 2000 |
| CCc1c(N2CCN(C(=O)c3c(OC)ccnc3O)[C@H]3CC[C@@H]32)c(=O)c2nn(C3=CCOCC3)nc2n1CC(=O)NC12CC(C(C)C)(C1)C2 [I-205, 2-(2-(3,6-dihydro-2H-pyran-4-yl)-5-ethyl-6-((1S,6S)-5-(2-hydroxy-4-methoxynicotinoyl)-2,5-diazabicyclo[4.2.0]octan-2-yl)-7-oxo-2,7-dihydro-4H-[1,2,3]triazolo[4,5-b]pyridin-4-yl)-N-(3-isopropylbicyclo[1.1.1]pentan-1-yl)acetamide] | 5 to 50 | > 5000 |
| CCc1c(N2CCN(C(=O)c3ncnc(C)c3O)[C@H]3CC[C@@H]32)c(=O)n2nc(C3=CCOCC3)nc2n1CC(=O)NC12CC(C(C)C)(C1)C2 [I-222, 2-(2-(3,6-dihydro-2H-pyran-4-yl)-5-ethyl-6-((1S,6S)-5-(5-hydroxy-6-methylpyrimidine-4-carbonyl)-2,5-diazabicyclo[4.2.0]octan-2-yl)-7-oxo-[1,2,4]triazolo[1,5-a]pyrimidin-4(7H)-yl)-N-(3-isopropylbicyclo[1.1.1]pentan-1-yl)acetamide] | 5 to 50 | ≤ 500 |
| CCc1c(N2CCN(C(=O)c3c(O)ccc4ncoc34)CC2)c(=O)n2nc(-c3ccnc(OC)c3)nc2n1CCNC(=O)C12CC(C(F)(F)F)(C1)C2 [I-34, N-(2-(5-ethyl-6-(4-(6-hydroxybenzo[d]oxazole-7-carbonyl)piperazin-1-yl)-2-(2-methoxypyridin-4-yl)-7-oxo-[1,2,4]triazolo[1,5-a]pyrimidin-4(7H)-yl)ethyl)-3-(trifluoromethyl)bicyclo[1.1.1]pentyl-1-carboxamide] | > 500 | > 5000 |
| CCc1c(N2CCN(C(=O)c3ncnc(C)c3O)CC2)c(=O)n2nc(C3=CCOCC3)nc2n1CC(=O)NC12CC(C(C)C)(C1)C2 [I-234, 2-(2-(3,6-dihydro-2H-pyran-4-yl)-5-ethyl-6-(4-(5-hydroxy-6-methylpyrimidine-4-carbonyl)piperazin-1-yl)-7-oxo-[1,2,4]triazolo[1,5-a]pyrimidin-4(7H)-yl)-N-(3-isopropylbicyclo[1.1.1]pentan-1-yl)acetamide] | 5 to 50 | 500 to 2000 |
| CCc1c(N2CCN(C(=O)c3ncc4c(c3O)CCO4)CC2)c(=O)n2nc(C3=CCOCC3)nc2n1CC(=O)NC12CC(CC)(C1)C2 [I-14, 2-(2-(3,6-dihydro-2H-pyran-4-yl)-5-ethyl-6-(4-(4-hydroxy-2,3-dihydrofuro[2,3-c]pyridine-5-carbonyl)piperazin-1-yl)-7-oxo-[1,2,4]triazolo[1,5-a]pyrimidin-4(7H)-yl)-N-(3-ethylbicyclo[1.1.1]pentan-1-yl)acetamide] | 5 to 50 | 500 to 2000 |
| CCc1c(N2CCN(C(=O)c3c(O)ccc4nc(C)oc34)CC2)c(=O)n2nc(-c3ccnc(OC)c3)nc2n1CC(=O)NC12CC(CC)(C1)C2 [I-215, 2-(5-ethyl-6-(4-(6-hydroxy-2-methylbenzo[d]oxazole-7-carbonyl)piperazin-1-yl)-2-(2-methoxypyridin-4-yl)-7-oxo-[1,2,4]triazolo[1,5-a]pyrimidin-4(7H)-yl)-N-(3-ethylbicyclo[1.1.1]pentan-1-yl)acetamide] | 5 to 50 | ≤ 500 |
| CCc1c(N2CCN(C(=O)c3c(OC)ncc(C)c3O)CC2)c(=O)n2nc(-c3ccnc(OC)c3)nc2n1CC(=O)NC12CC(C3CC3)(C1)C2 [I-39, N-(3-cyclopropylbicyclo[1.1.1]pentan-1-yl)-2-(5-ethyl-6-(4-(4-hydroxy-2-methoxy-5-methylnicotinoyl)piperazin-1-yl)-2-(2-methoxypyridin-4-yl)-7-oxo-[1,2,4]triazolo[1,5-a]pyrimidin-4(7H)-yl)acetamide] | 5 to 50 | ≤ 500 |
| CCc1c(N2CCN(C(=O)c3cccc4ncoc34)CC2)c(=O)n2nc(-c3ccnc(OC)c3)nc2n1CC(=O)NC12CC(C(C)C)(C1)C2 [I-213, 2-(6-(4-(benzo[d]oxazole-7-carbonyl)piperazin-1-yl)-5-ethyl-2-(2-methoxypyridin-4-yl)-7-oxo-[1,2,4]triazolo[1,5-a]pyrimidin-4(7H)-yl)-N-(3-isopropylbicyclo[1.1.1]pentan-1-yl)acetamide] | 5 to 50 | 500 to 2000 |
| CCc1c(N2CCN(C(=O)c3cnn(C)c3)CC2)c(=O)n2nc(-c3ccnc(OC)c3)nc2n1CC(=O)NC1CC2(C1)CC2F (stereo not shown) [I-247, 2-(5-ethyl-2-(2-methoxypyridin-4-yl)-6-(4-(1-methyl-1H-pyrazole-4-carbonyl)piperazin-1-yl)-7-oxo-[1,2,4]triazolo[1,5-a]pyrimidin-4(7H)-yl)-N-(1-fluorospiro[2.3]hexan-5-yl)acetamide] | 100 to 500 | > 5000 |
